The results in this text go back to US12723063B2, “GIPR-agonist compounds” (Eli Lilly and Company, priority 2019, dated 2026).

The target in one assay is T1, human GIPR (Homo sapiens, UniProt P48546).
T1 construct: expressed in transfected cells; crude membranes
T1 sequence (P48546 22-466): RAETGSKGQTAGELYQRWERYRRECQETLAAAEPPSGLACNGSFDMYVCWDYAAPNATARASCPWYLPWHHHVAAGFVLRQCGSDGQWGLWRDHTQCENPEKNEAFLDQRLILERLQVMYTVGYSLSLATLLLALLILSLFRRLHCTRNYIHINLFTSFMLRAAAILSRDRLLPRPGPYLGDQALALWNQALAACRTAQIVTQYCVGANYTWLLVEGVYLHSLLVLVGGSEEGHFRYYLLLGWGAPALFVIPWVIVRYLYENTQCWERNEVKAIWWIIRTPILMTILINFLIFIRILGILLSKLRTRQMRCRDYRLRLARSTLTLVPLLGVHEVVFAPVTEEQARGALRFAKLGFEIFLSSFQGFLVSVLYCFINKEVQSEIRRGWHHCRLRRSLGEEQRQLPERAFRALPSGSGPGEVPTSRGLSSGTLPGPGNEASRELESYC
Nature of the assay: [125I]-GIP binding, SPA with WGA beads, 0.1% bacitracin. The settings on record: geometric mean, read-out: hGIPR Ki. Summed up: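 Ki values are geometric means (SEM, n independent days), derived from four-parameter nonlinear regression of IC50. Membranes came from hGIPR-expressing CHO cells.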

A further assay addresses T2, human GcgR (Homo sapiens, UniProt P47871).
T2 construct: expressed in transfected cells; crude membranes
Briefly: [125I]-Glucagon binding, SPA with WGA beads, 0.1% bacitracin. Conditions: geometric mean, read-out: hGcgR Ki. Summed up:
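SPA competition binding with WGA beads on crude membranes from HEK293 cells stably expressing hGcgR. Buffer: 25 mM HEPES pH 7.4, 2.5 mM CaCl2, 1 mM MgCl2, 0.1% bacitracin, 0.003% Tween-20; 10-point 3-fold dilutions, NSB with 1 μM Gcg.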

*1 amine or outer side, *2 acyl side, *3 side chain or, on linkers, in order; H or OH if unused. Where a SMILES comes first, the peptide text is derived from it. Side-chain parts run from the residue outwards. [ ]: non-standard residue; d: D form. The star is where a group is joined. C20 diacid = O=C(O)CCCCCCCCCCCCCCCCCCC(=O)*; γGlu = O=C(O)[C@H](CCC(=O)[*:2])N[*:1]; αMeL = CC(C)C[C@](C)(N)C(=O)O; AEEA = NCCOCCOCC(=O)O; Aib = CC(C)(N)C(=O)O

T2 sequence (P47871 26-477): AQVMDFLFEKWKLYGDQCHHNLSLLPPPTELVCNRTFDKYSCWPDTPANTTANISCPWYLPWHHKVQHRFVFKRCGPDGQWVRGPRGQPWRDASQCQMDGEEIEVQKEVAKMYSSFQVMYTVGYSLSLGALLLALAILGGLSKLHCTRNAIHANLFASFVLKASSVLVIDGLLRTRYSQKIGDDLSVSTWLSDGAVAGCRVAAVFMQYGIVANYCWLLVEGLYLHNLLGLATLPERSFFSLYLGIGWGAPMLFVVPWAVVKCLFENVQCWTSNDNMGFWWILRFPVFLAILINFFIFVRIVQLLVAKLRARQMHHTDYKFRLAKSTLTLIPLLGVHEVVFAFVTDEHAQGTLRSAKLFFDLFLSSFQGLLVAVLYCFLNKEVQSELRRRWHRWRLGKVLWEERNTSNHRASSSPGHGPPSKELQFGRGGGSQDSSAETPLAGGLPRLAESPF

In general, Ki refers to the equilibrium dissociation constant of an inhibitor or competing ligand from its target. Take `CC[C@H](C)[C@H](NC(=O)[C@H](Cc1ccccc1)NC(=O)[C@@H](NC(=O)CNC(=O)[C@H](CCC(=O)O)NC(=O)C(C)(C)NC(=O)[C@@H](N)Cc1ccc(O)cc1)[C@@H](C)O)C(=O)N[C@@H](CO)C(=O)N[C@@H](CC(=O)O)C(=O)N[C@@H](Cc1ccc(O)cc1)C(=O)N[C@@H](CO)C(=O)N[C@H](C(=O)N[C@@](C)(CC(C)C)C(=O)N[C@@H](CC(C)C)C(=O)N[C@@H](CC(=O)O)C(=O)N[C@@H](CCCCN)C(=O)N[C@@H](CCCCNC(=O)COCCOCCNC(=O)COCCOCCNC(=O)CC[C@H](NC(=O)CCCCCCCCCCCCCCCCCCC(=O)O)C(=O)O)C(=O)N[C@@H](Cc1c[nH]cn1)C(=O)N[C@@H](CCC(N)=O)C(=O)NC(C)(C)C(=O)N[C@@H](CCC(=O)O)C(=O)N[C@@H](Cc1ccccc1)C(=O)N[C@H](C(=O)N[C@@H](CCC(=O)O)C(=O)N[C@@H](Cc1ccc(O)cc1)C(=O)N[C@@H](CC(C)C)C(=O)N[C@@H](CC(C)C)C(=O)N[C@@H](CCC(=O)O)C(=O)N[C@@H](CCC(N)=O)C(=O)NCC(=O)N1CCC[C@H]1C(=O)N[C@@H](CO)C(=O)N[C@@H](CO)C(=O)NCC(=O)N[C@@H](C)C(=O)N1CCC[C@H]1C(=O)N1CCC[C@H]1C(=O)N1CCC[C@H]1C(=O)N[C@@H](CO)C(N)=O)C(C)C)[C@@H](C)CC` [Example 63] (H-Y[Aib]EGTFISDYSI[αMeL]LDKK([AEEA-AEEA-γGlu-C20 diacid])HQ[Aib]EFVEYLLEQGPSSGAPPPS-NH2): the values for the Ki on human GIPR and on human GcgR were 0.0248 nM and 185 nM, respectively.

As to `CC[C@H](C)[C@H](NC(=O)[C@H](Cc1ccccc1)NC(=O)[C@@H](NC(=O)CNC(=O)[C@H](CCC(=O)O)NC(=O)C(C)(C)NC(=O)[C@@H](N)Cc1ccc(O)cc1)[C@@H](C)O)C(=O)N[C@@H](CO)C(=O)N[C@@H](CC(=O)O)C(=O)N[C@@H](Cc1ccc(O)cc1)C(=O)N[C@@H](CO)C(=O)N[C@H](C(=O)N[C@@](C)(CC(C)C)C(=O)N[C@@H](CC(C)C)C(=O)N[C@@H](CC(=O)O)C(=O)N[C@@H](CCCCN)C(=O)N[C@@H](CCCCNC(=O)COCCOCCNC(=O)COCCOCCNC(=O)CC[C@H](NC(=O)CCCCCCCCCCCCCCCCCCC(=O)O)C(=O)O)C(=O)N[C@@H](Cc1c[nH]cn1)C(=O)N[C@@H](CCC(N)=O)C(=O)NC(C)(C)C(=O)N[C@@H](CCC(=O)O)C(=O)N[C@@H](Cc1ccccc1)C(=O)N[C@H](C(=O)N[C@@H](CCC(=O)O)C(=O)N[C@@H](Cc1ccc(O)cc1)C(=O)N[C@@H](CC(C)C)C(=O)N[C@@H](CC(C)C)C(=O)N[C@@H](CCC(=O)O)C(=O)N[C@H](C(=O)NCC(=O)N1CCC[C@H]1C(=O)N[C@@H](CO)C(=O)N[C@@H](CO)C(=O)NCC(=O)N[C@@H](C)C(=O)N1CCC[C@H]1C(=O)N1CCC[C@H]1C(=O)N1CCC[C@H]1C(=O)N[C@@H](CO)C(N)=O)[C@@H](C)O)C(C)C)[C@@H](C)CC` [Example 64] (H-Y[Aib]EGTFISDYSI[αMeL]LDKK([AEEA-AEEA-γGlu-C20 diacid])HQ[Aib]EFVEYLLETGPSSGAPPPS-NH2), the Ki on human GIPR was determined as 0.022 nM; on human GcgR, 196 nM.

As for `CC[C@H](C)[C@H](NC(=O)[C@H](Cc1ccccc1)NC(=O)[C@@H](NC(=O)CNC(=O)[C@H](CCC(=O)O)NC(=O)C(C)(C)NC(=O)[C@@H](N)Cc1ccc(O)cc1)[C@@H](C)O)C(=O)N[C@@H](CO)C(=O)N[C@@H](CC(=O)O)C(=O)N[C@@H](Cc1ccc(O)cc1)C(=O)N[C@@H](CO)C(=O)N[C@H](C(=O)N[C@@](C)(CC(C)C)C(=O)N[C@@H](CC(C)C)C(=O)N[C@@H](CC(=O)O)C(=O)N[C@@H](CCCCN)C(=O)N[C@@H](CCCCNC(=O)COCCOCCNC(=O)COCCOCCNC(=O)CC[C@H](NC(=O)CCCCCCCCCCCCCCCCCCC(=O)O)C(=O)O)C(=O)N[C@@H](Cc1c[nH]cn1)C(=O)N[C@@H](CCC(N)=O)C(=O)NC(C)(C)C(=O)N[C@@H](CCC(=O)O)C(=O)N[C@@H](Cc1ccccc1)C(=O)N[C@H](C(=O)N[C@@H](CCC(=O)O)C(=O)N[C@@H](Cc1ccc(O)cc1)C(=O)N[C@@H](CC(C)C)C(=O)N[C@@H](CC(C)C)C(=O)N[C@@H](CCC(=O)O)C(=O)N[C@@H](C)C(=O)NCC(=O)N1CCC[C@H]1C(=O)N[C@@H](CO)C(=O)N[C@@H](CO)C(=O)NCC(=O)N[C@@H](C)C(=O)N1CCC[C@H]1C(=O)N1CCC[C@H]1C(=O)N1CCC[C@H]1C(=O)N[C@@H](CO)C(N)=O)C(C)C)[C@@H](C)CC` [Example 65] (H-Y[Aib]EGTFISDYSI[αMeL]LDKK([AEEA-AEEA-γGlu-C20 diacid])HQ[Aib]EFVEYLLEAGPSSGAPPPS-NH2), the Ki at human GIPR stood at 0.0316 nM; on human GcgR, 279 nM.

On to `CC[C@H](C)[C@H](NC(=O)[C@H](Cc1ccccc1)NC(=O)[C@@H](NC(=O)CNC(=O)[C@H](CCC(=O)O)NC(=O)C(C)(C)NC(=O)[C@@H](N)Cc1ccc(O)cc1)[C@@H](C)O)C(=O)N[C@@H](CO)C(=O)N[C@@H](CC(=O)O)C(=O)N[C@@H](Cc1ccc(O)cc1)C(=O)N[C@@H](CO)C(=O)N[C@H](C(=O)N[C@@](C)(CC(C)C)C(=O)N[C@@H](CC(C)C)C(=O)N[C@@H](CC(=O)O)C(=O)N[C@@H](CCCCN)C(=O)N[C@@H](CCCCNC(=O)COCCOCCNC(=O)COCCOCCNC(=O)CC[C@H](NC(=O)CCCCCCCCCCCCCCCCCCC(=O)O)C(=O)O)C(=O)N[C@@H](Cc1c[nH]cn1)C(=O)N[C@@H](CCC(N)=O)C(=O)NC(C)(C)C(=O)N[C@@H](CC(=O)O)C(=O)N[C@@H](Cc1ccccc1)C(=O)N[C@H](C(=O)N[C@@H](CCC(=O)O)C(=O)N[C@@H](Cc1ccc(O)cc1)C(=O)N[C@@H](CC(C)C)C(=O)N[C@@H](CC(C)C)C(=O)N[C@@H](CCC(=O)O)C(=O)N[C@H](C(=O)NCC(=O)N1CCC[C@H]1C(=O)N[C@@H](CO)C(=O)N[C@@H](CO)C(=O)NCC(=O)N[C@@H](C)C(=O)N1CCC[C@H]1C(=O)N1CCC[C@H]1C(=O)N1CCC[C@H]1C(=O)N[C@@H](CO)C(N)=O)[C@@H](C)O)C(C)C)[C@@H](C)CC` [Example 66] (H-Y[Aib]EGTFISDYSI[αMeL]LDKK([AEEA-AEEA-γGlu-C20 diacid])HQ[Aib]DFVEYLLETGPSSGAPPPS-NH2), for which the inhibition constant Ki is 0.0866 nM at human GIPR and 279 nM on human GcgR.

Turning to `CC[C@H](C)[C@H](NC(=O)[C@H](Cc1ccccc1)NC(=O)[C@@H](NC(=O)CNC(=O)[C@H](CCC(=O)O)NC(=O)C(C)(C)NC(=O)[C@@H](N)Cc1ccc(O)cc1)[C@@H](C)O)C(=O)N[C@@H](CO)C(=O)N[C@@H](CC(=O)O)C(=O)N[C@@H](Cc1ccc(O)cc1)C(=O)N[C@@H](CO)C(=O)N[C@H](C(=O)N[C@@](C)(CC(C)C)C(=O)N[C@@H](CC(C)C)C(=O)N[C@@H](CC(=O)O)C(=O)N[C@@H](CCCCN)C(=O)N[C@@H](CCCCNC(=O)COCCOCCNC(=O)COCCOCCNC(=O)CC[C@H](NC(=O)CCCCCCCCCCCCCCCCCCC(=O)O)C(=O)O)C(=O)N[C@@H](Cc1c[nH]cn1)C(=O)N[C@@H](CCC(N)=O)C(=O)NC(C)(C)C(=O)N[C@@H](CC(=O)O)C(=O)N[C@@H](Cc1ccccc1)C(=O)N[C@H](C(=O)N[C@@H](CCC(=O)O)C(=O)N[C@@H](Cc1ccc(O)cc1)C(=O)N[C@@H](CC(C)C)C(=O)N[C@@H](CC(C)C)C(=O)N[C@@H](CCC(=O)O)C(=O)N[C@@H](C)C(=O)NCC(=O)N1CCC[C@H]1C(=O)N[C@@H](CO)C(=O)N[C@@H](CO)C(=O)NCC(=O)N[C@@H](C)C(=O)N1CCC[C@H]1C(=O)N1CCC[C@H]1C(=O)N1CCC[C@H]1C(=O)N[C@@H](CO)C(N)=O)C(C)C)[C@@H](C)CC` [Example 68] (H-Y[Aib]EGTFISDYSI[αMeL]LDKK([AEEA-AEEA-γGlu-C20 diacid])HQ[Aib]DFVEYLLEAGPSSGAPPPS-NH2), the Ki on human GIPR was found to be 0.0948 nM; at human GcgR, 290 nM.

Turning to `CC[C@H](C)[C@H](NC(=O)[C@H](Cc1ccccc1)NC(=O)[C@@H](NC(=O)CNC(=O)[C@H](CCC(=O)O)NC(=O)C(C)(C)NC(=O)[C@@H](N)Cc1ccc(O)cc1)[C@@H](C)O)C(=O)N[C@@H](CO)C(=O)N[C@@H](CC(=O)O)C(=O)N[C@@H](Cc1ccc(O)cc1)C(=O)N[C@@H](CO)C(=O)N[C@H](C(=O)N[C@@](C)(CC(C)C)C(=O)N[C@@H](CC(C)C)C(=O)N[C@@H](CC(=O)O)C(=O)N[C@@H](CCCCN)C(=O)N[C@@H](CCCCNC(=O)COCCOCCNC(=O)COCCOCCNC(=O)CC[C@H](NC(=O)CCCCCCCCCCCCCCCCCCC(=O)O)C(=O)O)C(=O)N[C@@H](Cc1c[nH]cn1)C(=O)N[C@@H](CCC(N)=O)C(=O)NC(C)(C)C(=O)N[C@@H](CC(=O)O)C(=O)N[C@@H](Cc1ccccc1)C(=O)N[C@H](C(=O)N[C@@H](CCC(=O)O)C(=O)N[C@@H](Cc1ccc(O)cc1)C(=O)N[C@@H](CC(C)C)C(=O)N[C@@H](CC(C)C)C(=O)N[C@@H](CCC(=O)O)C(=O)NCC(=O)NCC(=O)N1CCC[C@H]1C(=O)N[C@@H](CO)C(=O)N[C@@H](CO)C(=O)NCC(=O)N[C@@H](C)C(=O)N1CCC[C@H]1C(=O)N1CCC[C@H]1C(=O)N1CCC[C@H]1C(=O)N[C@@H](CO)C(N)=O)C(C)C)[C@@H](C)CC` [Example 69] (H-Y[Aib]EGTFISDYSI[αMeL]LDKK([AEEA-AEEA-γGlu-C20 diacid])HQ[Aib]DFVEYLLEGGPSSGAPPPS-NH2), the Ki stood at 0.0406 nM at human GIPR and 114 nM at human GcgR.
